For `CCCCc1nc2cnc3cccnc3c2n1CCCCNC(=O)OC(C)(C)C`, the melting point (in general, the temperature, or range, at which the solid turns liquid) was in the range of 96 to 98 °C.

Consider `CCCCN1CC(=O)C(C(=O)OCC)C1=O` (configuration not stated), for which the melting point was in the range of 121 to 123 °C.

`Cc1cc(C)c2nc(C)n(Cc3ccc(NCC4CCN(C(C)C)CC4)cc3)c2n1` returned a melting point of 134 to 136 °C.

In turn, `CS(=O)(=O)OC1CN(C(c2ccccc2)c2ccccc2)C1` had a melting point of 85 to 87 °C.

Molecule `COc1ccc(CN2C(=O)C(NC(=O)Nc3ccccc3)C(=O)N(CCC(C)C)c3ccccc32)cc1` (configuration not stated) had a melting point of 206 to 208 °C.

For the molecule `COc1c(N)cccc1NC(=O)c1ccc(Br)cc1`, the melting point lay in the range of 111 to 112 °C.

Molecule `CC(C)(C)c1ccc(CCCC(O)CC2CCCCC2)cc1NC(=O)CC1c2ccccc2Oc2ccccc21` (configuration not stated) had a melting point of 157 to 158 °C.

Regarding `COc1cc(C#N)ccc1OCCCN1CCC(c2noc3cc(F)ccc23)CC1`, the melting point was in the range of 107 to 108 °C.

As for `Cc1oc(-c2ccccc2)nc1COc1cccc(CON=C(CCC(=O)O)c2ccccc2)c1`, the melting point lay within 108 to 109 °C.

`COc1ccc2c(c1)CCC(n1cc[nH]c1=S)C2` (configuration not stated) had a melting point of 226 to 227 °C.

For `O=S1(=O)N=CN(C2CC2)c2c(Cl)cccc21`, the melting point fell in the range of 159 to 160 °C.

The molecule `Cc1nc(N)nc(N)c1C#CCc1ccccc1` showed a melting point of 145 to 149 °C.

`CCOC(=O)CC1CCc2cncn2C1c1ccc(C#N)cc1` (configuration not stated) displayed a melting point of 126 to 127 °C.

`COc1cccc2c1nc(C(F)F)n2-c1nc(N2CCOCC2)nc(N2CCN(S(=O)(=O)C(F)(F)F)CC2)n1` returned a melting point of 272 to 273 °C.

The molecule `COc1cc2sc(C(N)=O)cc2c(Cl)c1OC` came in with a melting point of 180 to 182 °C.

As to `COc1cc2cc(CO)c(CO)c(-c3ccnc(-n4c(=O)ccc5ccccc54)c3)c2cc1OC`, the melting point is greater than 230 °C.

For `O=C(O)Cn1c(=O)c2ccccc2n(CCCN2CCC(OC(c3ccccc3)c3ccccc3)CC2)c1=O`, the melting point is 170 to 172 °C.

On to `COC(=O)[C@H](O)[C@@H](O)C(C)C`, for which the melting point lay in the range of 32 to 34 °C.

The molecule `COc1ccc(C(=NOC(C)=O)c2cc(F)ccc2F)c(O)c1` yielded a melting point of 110 to 111 °C.

`NC(=O)[C@H]1CN(c2cc(F)c(N3CCOCC3)c(F)c2)C(=O)O1` displayed a melting point of 181 to 183 °C.

Consider `CCCCCCCCCCCCc1nnc(C(C(=O)Nc2c(OC)cc(OC)cc2OC)c2ccccc2)o1` (configuration not stated), for which the melting point lay in the range of 120 to 121 °C.

`CNc1nc(-c2ccc(F)cc2)cc(C(C)C)n1` yielded a melting point of 75 to 76 °C.

Consider `Nc1ccccc1SC(F)(F)F`, for which the melting point lay in the range of 30 to 31 °C.

Turning to `COc1ccc(CSc2ccncc2)c2c1OC(C)(C)C2`, the melting point was 109 to 113 °C.

For `O=C(O)c1cc(-c2ccnc(Nc3cccc(C(F)(F)F)c3)n2)ccn1`, the melting point was 241 to 245 °C.

In turn, `O=C(OCCn1c(-c2ccccc2)nc2cc(CN3CCN(C(c4ccccc4)c4ccccc4)CC3)ccc21)c1ccccc1` showed a melting point of 164 °C.

The molecule `CCOC(=O)c1ccc(CCN2CCN(Cc3ccc(OC)cc3)CC2)cc1` yielded a melting point of 75 to 76 °C.

With `CSC(=C[N+](=O)[O-])Nc1ccc(Cl)nc1`, the melting point lay within 169 to 171 °C.

`O=C1Cc2c(ccc3ccc(C(O)C(F)(F)F)cc23)O1` (configuration not stated) had a melting point of 208 to 209 °C.

Turning to `COC(=O)[C@@H]1C[C@H](C(=O)OC(C)(C)C)N(C(=O)CNC(=O)Nc2cccc(C(=O)O)c2)[C@@H]1c1ccccc1` (racemic), the melting point amounted to 243 °C.

In turn, `ClC(=NNc1ccccc1)c1ccc(Cl)cc1Cl` had a melting point of 88.5 to 89.5 °C.

Take `O=C(NCCCO)OCc1ccccc1`: the melting point lay within 47 to 49 °C.

As for `O=C(O)c1ncc(Cl)nc1Cl`, the melting point fell in the range of 139 to 141 °C.

Take `Fc1ccc(SC(c2cc(F)ccc2F)c2cc(Cl)ncc2Cl)cc1` (configuration not stated): the melting point fell in the range of 95 to 97 °C.

`CCCCCC(Cc1ccc(OC)c(OCCc2ccccc2)c1)NC(=O)OC(C)(C)C` (configuration not stated) gave a melting point of 91.5 to 92.5 °C.

The molecule `CC(C)(NC(=O)CCn1ccnc1)c1ccc(Cl)cc1` gave a melting point of 154 to 155 °C.

`CCS(=O)(=O)N(c1cc(-c2ncnc(C(F)(F)F)c2Cl)c(F)cc1C#N)S(=O)(=O)CC` returned a melting point of 191 to 194 °C.

`COc1cc(C(C)(C)O)cc(Br)c1O` showed a melting point of 107 to 112 °C.

As for `CCCCCCCCCCCCCCCCSCC(C)(C)CO`, the melting point was 25 to 28 °C.

Consider `COc1ccc(S(=O)(=O)N2CCc3cccc(-c4ccc(O)cc4)c32)cc1`, for which the melting point lay in the range of 179 to 180 °C.

`CCOC(=O)C(C)(C)S(=O)c1ccc2c(-c3ccc(Cl)cc3)noc2c1` (configuration not stated) came in with a melting point of 89 °C.

`CCCOc1ccc(/C=C/C(=O)N2CCOCC2)cc1-c1nc2c(c(C)nn2CCC)c(=O)[nH]1` displayed a melting point of 156 to 157 °C.

The molecule `COc1c(C)c(C)c2c(c1C)C(c1ccc(CCCCCCC(=O)O)cc1)C(C)(C)O2` (configuration not stated) had a melting point of 88 to 89 °C.

`CCOC(=O)c1c2n(c3c(F)c(N4CCC(NC(=O)C(F)(F)F)C4)c(F)cc3c1=O)C(C)S2` (configuration not stated) displayed a melting point of 235 to 237 °C.

As to `N=C(Nc1ccc(CCCC(=O)Nc2ccccc2)cc1)c1cccs1`, the melting point lay within 229 to 231 °C.

`CCc1nc2c(cnn2CC)c(NC2CCOCC2)c1CNC(=O)c1cccc(C(=O)NCc2ccc(OC)c(-c3cccc(CN4CCCN(C)CC4)c3)c2)c1` displayed a melting point of 116 to 119 °C.

`N#Cc1c(N2CCCN(c3cccc(C(F)(F)F)c3)CC2)cc[nH]c1=S` returned a melting point of 247 to 248 °C.

Consider `CCCCn1ccc(-c2ccc(Oc3cc(C)nc(C)c3)c(F)c2)c(C#N)c1=O`, for which the melting point worked out at 205 °C.

Take `N#Cc1cc([N+](=O)[O-])ccc1OC12CC3CC(CC(C3)C1)C2`: the melting point lay in the range of 187 to 189 °C.

For the molecule `CCCCC(Cc1ccc(OCCNC(=O)c2ccc(OC(C)C)nc2)cc1)C(=O)O` (configuration not stated), the melting point fell in the range of 117 to 118 °C.

Take `Cc1ccc(C(=O)Nc2cccc(C(F)(F)F)c2)cc1-c1ccc2ccncc2c1`: the melting point fell in the range of 157 to 159 °C.

For the molecule `Cc1nc2c(s1)CN=C(c1ccccc1Cl)c1cc(Cl)ccc1-2`, the melting point fell in the range of 162 to 164 °C.

Molecule `CS(=O)(=O)c1ccc(C(=O)C2C(=O)CCCC2=O)c(Cl)c1C1=NOC(Cc2ccccc2)C1` (configuration not stated) yielded a melting point of 72 to 76 °C.

`CN1C(=O)CCCc2ccc([N+](=O)[O-])cc21` yielded a melting point of 151 to 152 °C.

In turn, `CC1C(=O)N(c2ccccc2OCCCCBr)Sc2ccccc21` (configuration not stated) came in with a melting point of 93 °C.

Regarding `Nc1ccnc(N2CCN(c3nc4cccccc-4n3)CC2)n1`, the melting point was in the range of 205 to 208 °C.

`COC(=O)Nc1c(C/C=C(\C)CCC(=O)O)c(OC)c(C)c2c1C(=O)OC2` came in with a melting point of 155 to 158 °C.

In turn, `COc1ccc(CCN(C)CCCCc2ccc(NC(=O)c3cccc4c(=O)c5ccccc5[nH]c34)cc2)cc1OC` returned a melting point of 120 °C.

In turn, `Cc1onc(-c2ccccc2)c1-c1[nH]c2ccccc2c1CCC(=O)O` showed a melting point of 170 to 172 °C.

For the molecule `O=C(O)C1=CS[C@@H]2/C(=C/c3ccc4c(c3)N(Cc3ccccc3)C(=O)c3ccccc3O4)C(=O)N12`, the melting point was 179 °C.

The molecule `Cc1oc(-c2ccc(F)cc2)cc1C(C)O` (configuration not stated) displayed a melting point of 50 to 52 °C.

The molecule `Cc1cccc(OC2=NS(=O)(=O)N=C(N)N2C(C)C)c1` registered a melting point of 56 to 58 °C.

The molecule `CC(C)n1c(=O)n(C(=O)NC2CCN(C)CC2)c2ccccc21` returned a melting point of 204 to 205 °C.

In turn, `CC(=O)Nc1cccc(C(=O)NCc2ccc(-n3c(-c4cccnc4N)nc4ccc(C)nc43)cc2)c1` had a melting point of 157 to 161 °C.

Consider `O=C1NC(N2CCN(c3ccncc3)CC2)c2ccccc21` (configuration not stated), for which the melting point lay in the range of 210 to 214 °C.

Molecule `CC(C)(C)OC(=O)Nc1ccnc(NC(=O)NCc2ccccn2)c1` came in with a melting point of 192 to 193 °C.

`CCCCCCCCCCCCC1(Cn2ccnc2)SCC(CCCC)S1` (configuration not stated) came in with a melting point of 156 to 161 °C.

`CC=CCN1c2cc(Cl)ccc2NC(=O)[C@@H]1C` gave a melting point of 87 to 88 °C.

`CSC(=N[N+](=O)[O-])N(Cc1cnc(Cl)s1)C(C)=O` returned a melting point of 77 to 78 °C.

`CCOC(=O)CN(C(=O)CNC(=O)Nc1cccc(C)c1)c1ccccc1` came in with a melting point of 181 °C.

In the case of `FC(F)(F)c1cc(Cl)c(-n2ncc(-c3nc(Br)c(Br)[nH]3)n2)c(Cl)c1`, the melting point is 234 to 235 °C.

In the case of `[N-]=[N+]=Nc1cc2ccccc2oc1=O`, the melting point was in the range of 108 to 112 °C.

For `CCc1cc(=O)c2c([nH]1)COCC2`, the melting point lay in the range of 216 to 218 °C.

`O=C(O)CN1C(=O)C(=Cc2ccc(OCc3cccc(C(F)(F)F)c3)c(OCc3ccccc3)c2)SC1=S` returned a melting point of 187 to 194 °C.

In the case of `COC(=O)Cc1ccc(OCCNC(=O)C2Cc3ccccc3N2S(=O)(=O)c2ccc(-c3cc(C(F)(F)F)ccc3C)cc2)cc1` (configuration not stated), the melting point was in the range of 46 to 49 °C.

Consider `CCOCNC(=O)c1cc(OC)cc(Oc2cccc(C(F)(F)F)c2)n1`, for which the melting point is 44 to 47 °C.

`O=C1CCC2=C1C(c1ccc(F)c(Br)c1)C1=C(CCCCS1)N2` (configuration not stated) came in with a melting point of 210 °C.

As for `COc1ccc2ccccc2c1OP(=O)(O)O`, the melting point came to 171 °C.

The molecule `CC(C)(O)c1ccc(-c2cnc3[nH]c(=O)n(CCC4CCOCC4)c3n2)cn1` showed a melting point of 132 to 133 °C.

As to `CCOC(=O)c1c(C)cc(-c2ccc(OC)c(OC)c2)cc1C`, the melting point lay in the range of 91 to 92 °C.

Take `CC(=O)C1C(=O)c2cccc(N)c2C1=O` (configuration not stated): the melting point is 126 to 128 °C.

As to `Cc1cn(-c2ccc(N)cc2C(F)(F)F)c(C)n1`, the melting point fell in the range of 163 to 164 °C.

Consider `COc1ccccc1N1CCN(CCn2c(=O)[nH]c3scc(C)c3c2=O)CC1`, for which the melting point was 209 to 213 °C.

In the case of `Cc1nc(-c2cc(C(N)=O)c(=O)[nH]c2C)cs1`, the melting point was greater than 300 °C.

`CCCCC1(N(C)C)CCC(c2[nH]c3ccc(C#N)cc3c2C)CC1` (configuration not stated) yielded a melting point of 162 to 166 °C.

The molecule `CC(=O)Nc1ccccc1Oc1cc2c(=O)ccoc2cc1NS(C)(=O)=O` came in with a melting point of 130 to 132 °C.

In the case of `CCOC(=O)CNC(=O)[C@H](Cc1ccc(O)cc1)NC(=O)[C@H](CO)NC(=O)OCc1ccccc1`, the melting point lay within 166 to 169 °C.

The record behind these values is a melting point compilation (Tetko et al.; mined from patent text by program, amines drawn as free bases though some values may be those of a salt).
